Series [1] relates to Echinochloa oryzoides (Ard.) Fritsch. In words: Preemergence weed control under flooded paddy conditions, ECHORC (Watergrass (Calif.)). Further: meaning of each grade not given here. It counts as in vivo. As to conditions: preemergence, flooded paddy, rated three to four weeks after treatment.
The test system of another series is Cyperus iria. In words: Preemergence weed control under flooded paddy conditions, CYPIR (Rice Flatsedge). Further: meaning of each grade not given here. The note with it: preemergence, flooded paddy, rated three to four weeks after treatment. The class given is in vivo.
Series [2] concerns Cyperus serotinus, Rottb. Kind of series: Preemergence weed control under flooded paddy conditions, CYPSE (Flatsedge). Further: meaning of each grade not given here. The class given is in vivo. The note with it: preemergence, rated three to four weeks after treatment.
The subject of series [3] is Monochoria vaginalis, Presl. In words: Preemergence weed control under flooded paddy conditions, MOOVA (Monochoria). Further: meaning of each grade not given here. It counts as in vivo. The note with it: preemergence, flooded paddy, rated three to four weeks after treatment.
Another series deals with Sagittaria pygmaea, L. Kind of series: Preemergence weed control under flooded paddy conditions, SAGPY (Arrowhead (Pygmaea)). Further: meaning of each grade not given here. The note with it: preemergence, flooded paddy, rated three to four weeks after treatment. It counts as in vivo.
The test system of series [4] is Oryza sativa, (L.) Tebonnet. In words: Rice tolerance to post-transplant applications under flooded paddy conditions (Example 187), ORYSAT (Rice, Tebonnet). As to conditions: rated three to four weeks after treatment.

SMILES strings stand for the structures.

As to `COC(=O)C(C)Oc1ccc(C(C)C)cc1-c1nsc2ccc(-n3c(=O)cc(C(F)(F)F)n(C)c3=O)cc12` (stereo not drawn) [Example 30, Methyl 2-{2-{5-[3,6-dihydro-3-methyl-4-(trifluoromethyl)-2,6-dioxo-1(2H)-pyrimidinyl]-1,2-benzisothiazol-3-yl}-4-isopropylphenoxy}propionate], the “herbicidal effect rating, ECHORC” value in series [1] (0.0313 kg/ha) stood at 6.5; in series [1] (0.0625 kg/ha), 8.5; in series [1] (0.1250 kg/ha) it was 9.0; in series [1] (0.2500 kg/ha) it was 9.0. Besides, the “herbicidal effect rating, CYPIR” value with Cyperus iria (0.0313 kg/ha) was found to be 2.0; in the series with Cyperus iria (0.0625 kg/ha), 6.0; in the series on Cyperus iria (0.1250 kg/ha), 8.0; with Cyperus iria (0.2500 kg/ha) it was 8.0. For the same compound, the “herbicidal effect rating, CYPSE” value in series [2] (0.0313 kg/ha) is listed as 0.0; in series [2] (0.0625 kg/ha), 0.0; in series [2] (0.1250 kg/ha), 4.0; in series [2] (0.2500 kg/ha), 2.0. Moreover, the “herbicidal effect rating, MOOVA” value in series [3] (0.0313 kg/ha), in series [3] (0.0625 kg/ha), in series [3] (0.1250 kg/ha) and in series [3] (0.2500 kg/ha) was 9.0 throughout. For the same compound, the “herbicidal effect rating, SAGPY” value in the series on Sagittaria pygmaea, L. (0.0313 kg/ha) turned out to be 0.0; in the series on Sagittaria pygmaea, L. (0.0625 kg/ha) it was 0.0; in the series on Sagittaria pygmaea, L. (0.1250 kg/ha), 2.0; with Sagittaria pygmaea, L. (0.2500 kg/ha) it was 7.0. Moreover, the “herbicidal effect rating, ORYSAT (rice tolerance)” value (“herbicidal effect rating, ORYSAT” below) was determined as 2.0 in series [4] (0.0313 kg/ha), 3.0 in series [4] (0.0625 kg/ha), 3.0 in series [4] (0.1250 kg/ha) and 3.5 in series [4] (0.2500 kg/ha).
As for `COCc1nsc2ccc(-n3c(=O)cc(C(F)(F)F)n(C)c3=O)cc12` [Example 31, 3-[3-(Methoxymethyl)-1,2-benzisothiazol-5-yl]-1-methyl-6-(trifluoromethyl)-2,4(1H,3H)-pyrimidinedione], the “herbicidal effect rating, ECHORC” value in series [1] (0.0313 kg/ha) was found to be 7.0; in series [1] (0.0625 kg/ha), 8.5; in series [1] (0.1250 kg/ha), 9.0; in series [1] (0.2500 kg/ha), 9.0. The “herbicidal effect rating, CYPIR” value in the series with Cyperus iria (0.0313 kg/ha), with Cyperus iria (0.0625 kg/ha), in the series on Cyperus iria (0.1250 kg/ha) and in the series with Cyperus iria (0.2500 kg/ha) was 9.0 each time. Also, the “herbicidal effect rating, CYPSE” value in series [2] (0.0313 kg/ha) came out at 7.0; in series [2] (0.0625 kg/ha) it was 7.0; in series [2] (0.1250 kg/ha), 8.0; in series [2] (0.2500 kg/ha) it was 9.0. For the same compound, the “herbicidal effect rating, MOOVA” value in series [3] (0.0313 kg/ha), in series [3] (0.0625 kg/ha), in series [3] (0.1250 kg/ha) and in series [3] (0.2500 kg/ha) was 9.0 throughout. Further, the “herbicidal effect rating, SAGPY” value is reported as 4.0 with Sagittaria pygmaea, L. (0.0313 kg/ha); 7.0 with Sagittaria pygmaea, L. (0.0625 kg/ha); 9.0 in the series on Sagittaria pygmaea, L. (0.1250 kg/ha); 9.0 with Sagittaria pygmaea, L. (0.2500 kg/ha). Further, the “herbicidal effect rating, ORYSAT” value in series [4] (0.0313 kg/ha) stood at 7.5; in series [4] (0.0625 kg/ha), 8.0; in series [4] (0.1250 kg/ha), 7.5; in series [4] (0.2500 kg/ha) it was 8.0.
In the case of `COC(=O)C(C)Oc1ccc(C)cc1-c1nsc2ccc(-n3c(=S)cc(C(F)(F)F)n(C)c3=O)cc12` (stereo not drawn) [Example 33, Methyl 2-{{2-{5-[3,6-dihydro-3-methyl-2-oxo-6-thioxo-4-(trifluoromethyl)-1(2H)-pyrimidinyl]-1,2-benzisothiazol-3-yl}-p-tolyl}oxy}propionate], the “herbicidal effect rating, ECHORC” value is 7.5 in series [1] (0.0313 kg/ha), 8.5 in series [1] (0.0625 kg/ha), 9.0 in series [1] (0.1250 kg/ha) and 9.0 in series [1] (0.2500 kg/ha). Further, the “herbicidal effect rating, CYPIR” value in the series with Cyperus iria (0.0313 kg/ha) was 0.0; with Cyperus iria (0.0625 kg/ha), 0.0; in the series with Cyperus iria (0.1250 kg/ha), 2.0; in the series with Cyperus iria (0.2500 kg/ha), 4.0. Also, the “herbicidal effect rating, CYPSE” value in series [2] (0.0313 kg/ha), in series [2] (0.0625 kg/ha), in series [2] (0.1250 kg/ha) and in series [2] (0.2500 kg/ha) was 0.0 throughout. For the same compound, the “herbicidal effect rating, MOOVA” value in series [3] (0.0313 kg/ha), in series [3] (0.0625 kg/ha), in series [3] (0.1250 kg/ha) and in series [3] (0.2500 kg/ha) was 9.0 each time. Besides, the “herbicidal effect rating, SAGPY” value in the series with Sagittaria pygmaea, L. (0.0313 kg/ha) is reported as 0.0; in the series on Sagittaria pygmaea, L. (0.0625 kg/ha), 0.0; with Sagittaria pygmaea, L. (0.1250 kg/ha), 0.0; in the series on Sagittaria pygmaea, L. (0.2500 kg/ha), 0.0. Further, the “herbicidal effect rating, ORYSAT” value in series [4] (0.0313 kg/ha) was determined as 2.0; in series [4] (0.0625 kg/ha), 3.0; in series [4] (0.1250 kg/ha) it was 3.0; in series [4] (0.2500 kg/ha) it was 3.5.
For the compound `COc1cc(C)c(C)c(C)c1-c1nsc2ccc(-n3c(=O)cc(C(F)(F)F)n(C)c3=O)cc12` [Example 34, 3-[3-(6-Methoxy-2,3,4-trimethylphenyl)-1,2-benzisothiazol-5-yl]-1-methyl-6-(trifluoromethyl)-2,4(1H,3H)-pyrimidinedione], the “herbicidal effect rating, ECHORC” value in series [1] (0.0313 kg/ha) is on record as 2.0; in series [1] (0.0625 kg/ha), 2.5; in series [1] (0.1250 kg/ha) it was 3.5; in series [1] (0.2500 kg/ha), 4.5. In addition, the “herbicidal effect rating, CYPIR” value with Cyperus iria (0.0313 kg/ha), in the series on Cyperus iria (0.0625 kg/ha), in the series on Cyperus iria (0.1250 kg/ha) and in the series on Cyperus iria (0.2500 kg/ha) was 0.0 throughout. In addition, the “herbicidal effect rating, CYPSE” value in series [2] (0.0313 kg/ha), in series [2] (0.0625 kg/ha), in series [2] (0.1250 kg/ha) and in series [2] (0.2500 kg/ha) was 0.0 in each case. For the same compound, the “herbicidal effect rating, MOOVA” value in series [3] (0.0313 kg/ha), in series [3] (0.0625 kg/ha), in series [3] (0.1250 kg/ha) and in series [3] (0.2500 kg/ha) was 0.0 throughout. The “herbicidal effect rating, SAGPY” value in the series on Sagittaria pygmaea, L. (0.0313 kg/ha) is on record as 0.0; in the series with Sagittaria pygmaea, L. (0.0625 kg/ha) it was 0.0; in the series on Sagittaria pygmaea, L. (0.1250 kg/ha) it was 0.0; in the series with Sagittaria pygmaea, L. (0.2500 kg/ha) it was 0.0. Also, the “herbicidal effect rating, ORYSAT” value in series [4] (0.0313 kg/ha), in series [4] (0.0625 kg/ha), in series [4] (0.1250 kg/ha) and in series [4] (0.2500 kg/ha) was 0.0 throughout.
Turning to `COC(=O)COc1ccc(C)cc1-c1nsc2ccc(-n3c(=O)cc(C)n(C)c3=O)cc12` [Example 38, Methyl {{2-[5-(3,6-dihydro-3,4-dimethyl-2,6-dioxo-1(2H)-pyrimidinyl)-1,2-benzisothiazol-3-yl]-p-tolyl}oxy}acetate], the “herbicidal effect rating, ECHORC” value in series [1] (0.0313 kg/ha) worked out at 0.0; in series [1] (0.0625 kg/ha), 0.0; in series [1] (0.1250 kg/ha), 1.0; in series [1] (0.2500 kg/ha) it was 2.0. Further, the “herbicidal effect rating, CYPIR” value in the series on Cyperus iria (0.0313 kg/ha), with Cyperus iria (0.0625 kg/ha), in the series with Cyperus iria (0.1250 kg/ha) and in the series with Cyperus iria (0.2500 kg/ha) was 0.0 throughout. The “herbicidal effect rating, CYPSE” value in series [2] (0.0313 kg/ha), in series [2] (0.0625 kg/ha), in series [2] (0.1250 kg/ha) and in series [2] (0.2500 kg/ha) was 0.0 each time. Also, the “herbicidal effect rating, MOOVA” value in series [3] (0.0313 kg/ha), in series [3] (0.0625 kg/ha), in series [3] (0.1250 kg/ha) and in series [3] (0.2500 kg/ha) was 0.0 in each case. The “herbicidal effect rating, SAGPY” value worked out at 0.0 with Sagittaria pygmaea, L. (0.0313 kg/ha); 0.0 in the series with Sagittaria pygmaea, L. (0.0625 kg/ha); 0.0 with Sagittaria pygmaea, L. (0.1250 kg/ha); 0.0 in the series on Sagittaria pygmaea, L. (0.2500 kg/ha). In addition, the “herbicidal effect rating, ORYSAT” value in series [4] (0.0313 kg/ha), in series [4] (0.0625 kg/ha), in series [4] (0.1250 kg/ha) and in series [4] (0.2500 kg/ha) was 0.0 in each case.
